The structures appear in SMILES notation. Read-outs that look alike come from different tables or passages of the source.

The target of one assay is T1, human A2A receptors (Homo sapiens, UniProt P29274).
T1 construct: expressed in transfected cells; host or cells: HEK293
The assay can be described thus: Functional human A2A receptor activity, recombinant HEK293 cells, cAMP (HTRF). The class given is cell-based. The conditions noted are these: read-out: A2A (Category). As to the method:
(§1) The functional activities of human A2A and A2B receptors were determined by quantification of cAMP, being the second messenger for adenosine receptors.
(§2) After a 15 min incubation, HTRF reagents (cAMP dynamic 2, Cis Bio) were added and the cellular cAMP levels were determined using the ENVISION (Perkin Elmer) plate reader.
For orientation: Time-resolved FRET reads energy transfer from a long-lived donor to a nearby acceptor.

The target of the next assay is T2, human A2B receptors (Homo sapiens, UniProt P29275).
T2 construct: expressed in transfected cells; host or cells: HEK293
T2 sequence (P29275 1-332): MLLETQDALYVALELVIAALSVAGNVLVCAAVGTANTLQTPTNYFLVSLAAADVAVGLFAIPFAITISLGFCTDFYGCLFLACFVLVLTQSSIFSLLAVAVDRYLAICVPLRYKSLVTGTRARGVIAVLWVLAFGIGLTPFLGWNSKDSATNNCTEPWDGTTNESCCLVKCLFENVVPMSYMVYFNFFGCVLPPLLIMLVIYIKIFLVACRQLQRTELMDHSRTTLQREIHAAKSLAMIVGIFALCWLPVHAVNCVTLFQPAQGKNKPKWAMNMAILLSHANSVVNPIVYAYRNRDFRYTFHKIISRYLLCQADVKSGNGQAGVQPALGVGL
Put plainly: Functional human A2B receptor activity, recombinant HEK293 cells, cAMP (HTRF). The conditions noted are these: read-out: A2B (Category). The class given is cell-based. As to the method: as §1, §2

T1 sequence (P29274 whole entry): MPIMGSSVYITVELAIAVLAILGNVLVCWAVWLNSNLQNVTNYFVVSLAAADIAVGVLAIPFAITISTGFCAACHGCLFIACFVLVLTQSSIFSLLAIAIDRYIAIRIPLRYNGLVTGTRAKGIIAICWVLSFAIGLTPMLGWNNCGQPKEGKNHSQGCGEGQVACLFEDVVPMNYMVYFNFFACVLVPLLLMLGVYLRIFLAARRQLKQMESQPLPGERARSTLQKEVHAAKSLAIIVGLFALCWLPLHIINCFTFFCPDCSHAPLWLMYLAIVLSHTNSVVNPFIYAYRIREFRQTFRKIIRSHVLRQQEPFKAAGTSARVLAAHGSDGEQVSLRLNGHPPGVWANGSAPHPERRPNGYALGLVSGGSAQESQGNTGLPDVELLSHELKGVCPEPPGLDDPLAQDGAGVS

`O=C(c1cc2c(cn1)c(-c1cnc3c(F)cc(F)cn13)nn2CC(F)(F)F)N1CCCCC(O)C1` (racemic) [Compound 134, [3-(6,8-Difluoro-imidazo[1,2-a]pyridin-3-yl)-1-(2,2,2-trifluoro-ethyl)-1H-pyrazolo[4,3-c]pyridin-6-yl]-(3-hydroxy-azepan-1-yl)-methanone]: the IC50 on human A2A receptors was below 100 nM; at human A2B receptors, below 1000 nM.
Regarding `C[C@@]1(O)C[C@H]2C[C@@H]1CN2C(=O)c1cc2c(cn1)c(-c1coc3ccccc13)nn2CS(C)(=O)=O` (relative stereo) [Compound 31, (3-Benzofuran-3-yl-1-methanesulfonylmethyl-1H-pyrazolo[4,3-c]pyridin-6-yl)-(5-endo-hydroxy-5-exo-methyl-2-aza-bicyclo[2.2.1]hept-2-yl)-methanone], the values for the IC50 at human A2A receptors and at human A2B receptors were below 100 nM and below 1000 nM, respectively.
`O=C(c1cc2c(cn1)c(-c1cnc3ccc(F)cn13)nn2CC(F)F)N1CCCCCC1` [Compound 3, Azepan-1-yl-[1-(2,2-difluoro-ethyl)-3-(6-fluoro-imidazo[1,2-a]pyridin-3-yl)-1H-pyrazolo[4,3-c]pyridin-6-yl]-methanone]: the IC50 at human A2A receptors and on human A2B receptors was below 100 nM throughout.
With `O=C(c1cc2c(cn1)c(-c1cnc3ccc(F)cn13)nn2CCF)N1CCCCCC1` [Compound 4, Azepan-1-yl-[1-(2-fluoro-ethyl)-3-(6-fluoro-imidazo[1,2-a]pyridin-3-yl)-1H-pyrazolo[4,3-c]pyridin-6-yl]-methenone], the figures for the IC50 on human A2A receptors and on human A2B receptors were below 100 nM and below 1000 nM, respectively.
As for `CCCn1nc(-c2cnc3ccc(F)cn23)c2cnc(C(=O)N3CCCCCC3)cc21` [Compound 5, Azepan-1-yl-[3-(6-fluoro-imidazo[1,2-a]pyridin-3-yl)-1-propyl-1H-pyrazolo[4,3-c]pyridin-6-yl]-methanone], the IC50 at human A2A receptors is below 100 nM; at human A2B receptors, below 1000 nM.
Taken in the same sequence, the figures for `COCn1nc(-c2cnc3ccc(F)cn23)c2cnc(C(=O)N3CCCCCC3)cc21` [Compound 6, Azepan-1-yl-[3-(6-fluoro-imidazo[1,2-a]pyridin-3-yl)-1-methoxymethyl-1H-pyrazolo[4,3-c]pyridin-6-yl]-methanone] were below 100 nM and below 1000 nM.
As for `N#CCn1nc(-c2cnc3ccc(F)cn23)c2cnc(C(=O)N3CCCCCC3)cc21` [Compound 7, [6-(Azepane-1-carbonyl)-3-(6-fluoro-imidazo[1,2-a]pyridin-3-yl)-pyrazolo[4,3-c]pyridin-1-yl]-acetonitrile], the results for the IC50 at human A2A receptors and at human A2B receptors were below 100 nM and below 1000 nM, respectively.
Consider `O=C(c1cc2c(cn1)c(-c1cnc3c(F)cc(F)cn13)nn2CC1CC1)N1CCCOCC1` [Compound 9, [1-Cyclopropylmethyl-3-(6,8-difluoro-imidazo[1,2-a]pyridin-3-yl)-1H-pyrazolo[4,3-c]pyridin-6-yl]-1,4-oxazepan-4-yl-methanone], for which the IC50 was below 100 nM on human A2A receptors and below 1000 nM on human A2B receptors.
Regarding `CS(=O)(=O)n1nc(-c2cnc3c(F)cc(F)cn23)c2cnc(C(=O)N3CCCOCC3)cc21` [Compound 10, [3-(6,8-Difluoro-imidazo[1,2-a]pyridin-3-yl)-1-methanesulfonyl-1H-pyrazolo[4,3-c]pyridin-6-yl]-1,4-oxazepan-4-yl-methanone], the IC50 on human A2A receptors was below 100 nM; on human A2B receptors, below 1000 nM.
`N#CCn1nc(-c2coc3ccccc23)c2cnc(C(=O)N3CCCOCC3)cc21` [Compound 13, [3-Benzofuran-3-yl-6-(1,4-oxazepane-4-carbonyl)-pyrazolo[4,3-c]pyridin-1-yl]-acetonitrile]: the IC50 at human A2A receptors was below 100 nM; at human A2B receptors it was below 1000 nM.
Take `CSCn1nc(-c2cnc3c(F)cc(F)cn23)c2cnc(C(=O)N3CC4CCC(C4)C3)cc21` [Compound 14, (3-Aza-bicyclo[3.2.1]oct-3-yl)-[3-(6,8-difluoro-imidazo[1,2-a]pyridin-3-yl)-1-methylsulfanylmethyl-1H-pyrazolo[4,3-c]pyridin-6-yl]-methanone]: the IC50 at human A2A receptors and on human A2B receptors was below 100 nM each time.
For `CS(=O)(=O)Cn1nc(-c2cnc3c(F)cc(F)cn23)c2cnc(C(=O)N3CCCOCC3)cc21` [Compound 15, [3-(6,8-Difluoro-imidazo[1,2-a]pyridin-3-yl)-1-methanesulfonylmethyl-1H-pyrazolo[4,3-c]pyridin-6-yl]-1,4-oxazepan-4-yl-methanone], the IC50 at human A2A receptors and at human A2B receptors was below 100 nM throughout.
As for `CS(=O)(=O)Cn1nc(-c2coc3ccccc23)c2cnc(C(=O)N3CCCOCC3)cc21` [Compound 16, (3-Benzofuran-3-yl-1-methanesulfonylmethyl-1H-pyrazolo[4,3-c]pyridine-6-yl)-1,4-oxazepan-4-yl-methanone], the IC50 at human A2A receptors and on human A2B receptors was below 100 nM throughout.
Regarding `CS(=O)(=O)Cn1nc(-c2cnn3ccccc23)c2cnc(C(=O)N3CCCOCC3)cc21` [Compound 17, (1-Methanesulfonylmethyl-3-pyrazolo[1,5-a]pyridin-3-yl-1H-pyrazolo[4,3-c]pyridin-6-yl)-1,4-oxazepan-4-yl-methanone], the IC50 on human A2A receptors and at human A2B receptors was below 100 nM in each case.
For `CS(=O)(=O)Cn1nc(-c2cnn3ccccc23)c2cnc(C(=O)N3CC4CCC(C4)C3)cc21` [Compound 18, (3-Aza-bicyclo[3.2.1]oct-3-yl)-(1-methanesulfonylmethyl-3-pyrazolo[1,5-a]pyridin-3-yl-1H-pyrazolo[4,3-c]pyridin-6-yl)-methanone], the results for the IC50 on human A2A receptors and on human A2B receptors were below 100 nM and below 1000 nM, respectively.
Take `CS(=O)(=O)Cn1nc(-c2coc3ccccc23)c2cnc(C(=O)N3CC4CCC(C4)C3)cc21` [Compound 19, (3-Aza-bicyclo[3.2.1]oct-3-yl)-(3-benzofuran-3-yl-1-methanesulfonylmethyl-1H-pyrazolo[4,3-c]pyridin-6-yl)-methanone]: the IC50 on human A2A receptors and on human A2B receptors was below 100 nM each time.
For the molecule `CS(=O)(=O)Cn1nc(-c2cnc3ccc(F)cn23)c2cnc(C(=O)N3CCCCCC3)cc21` [Compound 20, Azepan-1-yl-[3-(6-fluoro-imidazo[1,2-a]pyridin-3-yl)-1-methanesulfonylmethyl-1H-pyrazolo[4,3-c]pyridin-6-yl]-methanone], the IC50 at human A2A receptors and at human A2B receptors was below 100 nM each time.
Take `CS(=O)(=O)Cn1nc(-c2cnc3c(F)cc(F)cn23)c2cnc(C(=O)N3CC4CCC(C4)C3)cc21` [Compound 23, (3-Aza-bicyclo[3.2.1]oct-3-yl)-[3-(6,8-difluoro-imidazo[1,2-a]pyridin-3-yl)-1-methanesulfonylmethyl-1H-pyrazolo[4,3-c]pyridin-6-yl]-methanone]: the IC50 at human A2A receptors and at human A2B receptors was below 100 nM in each case.
Consider `CC1(O)C2CCC1CN(C(=O)c1cc3c(cn1)c(-c1cnc4c(F)cc(F)cn14)nn3CS(C)(=O)=O)C2` (stereo not drawn) [Compound 24, [3-(6,8-Difluoro-imidazo[1,2-a]pyridin-3-yl)-1-methanesulfonylmethyl-1H-pyrazolo[4,3-c]pyridin-6-yl]-(8-endo-hydroxy-8-exo-methyl-3-aza-bicyclo[3.2.1]oct-3-yl)-methanone], for which the IC50 at human A2A receptors and at human A2B receptors was below 100 nM throughout.
Consider `CS(=O)(=O)Cn1nc(-c2cnc3c(F)cc(F)cn23)c2cnc(C(=O)N3[C@@H]4CC[C@H]3C[C@@H](O)C4)cc21` [Compound 25, [3-(6,8-Difluoro-imidazo[1,2-a]pyridin-3-yl)-1-methanesulfonylmethyl-1H-pyrazolo[4,3-c]pyridin-6-yl]-(3-endo-hydroxy-8-aza-bicyclo[3.2.1]oct-8-yl)-methanone], for which the IC50 on human A2A receptors and at human A2B receptors was below 100 nM in each case.
For `CS(=O)(=O)Cn1nc(-c2cnc3c(F)cc(F)cn23)c2cnc(C(=O)N3CC4CCC(C3)O4)cc21` [Compound 27, [3-(6,8-Difluoro-imidazo[1,2-a]pyridin-3-yl)-1-methanesulfonylmethyl-1H-pyrazolo[4,3 c]pyridin-6-yl]-(8-oxa-3-aza-bicyclo[3.2.1]oct-3-yl)-methanone], the values for the IC50 on human A2A receptors and at human A2B receptors were below 100 nM and below 1000 nM, respectively.
For `CC1(O)C2CCC1CN(C(=O)c1cc3c(cn1)c(-c1coc4ccccc14)nn3CS(C)(=O)=O)C2` (stereo not drawn) [Compound 28, (3-Benzofuran-3-yl-1-methanesulfonylmethyl-1H-pyrazolo[4,3-c]pyridin-6-yl)-(8-endo-hydroxy-8-exo-methyl-d3-3-aza-bicyclo[3.2.1]oct-3-yl)-methanone], the IC50 on human A2A receptors (recombinant HEK293 cells expressing human A2A receptor, agonist NECA, cAMP HTRF, 15 min incubation) is below 100 nM; at human A2B receptors (recombinant HEK293 cells expressing human A2B receptor, agonist NECA, cAMP HTRF, 15 min incubation), below 100 nM.
`CS(=O)(=O)Cn1nc(-c2coc3ccccc23)c2cnc(C(=O)N3CCOCC(F)(F)C3)cc21` [Compound 29, (3-Benzofuran-3-yl-1-methanesulfonylmethyl-1H-pyrazolo[4,3-c]pyridin-6-yl)-(6,6-difluoro-1,4-oxazepan-4-yl)-methanone]: the IC50 on human A2A receptors was below 100 nM; at human A2B receptors, below 1000 nM.
`CS(=O)(=O)Cn1nc(-c2coc3ccccc23)c2cnc(C(=O)N3CC4CCC(C3)C4O)cc21` (stereo not drawn) [Compound 30, (3-Benzofuran-3-yl-1-methanesulfonylmethyl-1H-pyrazolo[4,3-c]pyridin-6-yl)-(8-endo-hydroxy-3-aza-bicyclo[3.2.1]oct-3-yl)-methanone]: the IC50 on human A2A receptors and at human A2B receptors was below 100 nM each time.

The values are drawn from patent US20210380606A1, “5-AZAINDAZOLE DERIVATIVES AS ADENOSINE RECEPTOR ANTAGONISTS” (Merck Patent GmbH, priority 2018, published 2021).
